Patent US7695933B2, “SM38 nucleic acid molecules” (priority 2000, dated 2010)
Where “and” joins values, the source holds several entries; their conditions need not be identical. Equal values may be shown once. Read-outs that look alike come from different tables or passages of the source.

Assays:
SM38 = test: Enzyme assays and kinetics with purified recombinant soluble SM38; type: biochemical, Schistosoma mansoni; conditions: for Km / Vmax (specific activity) / kcat: 37° C., 10 mM potassium phosphate buffer pH 7.4, SM38 from Pichia pastoris
Description: The enzyme was incubated with NAD^+ (200 μM) in buffer A (1 ml final volume) until the reaction reached 50% completion. The enzyme was eliminated by centrifugation for 10 min at 5000×g on ultrafiltration units (Vivaspin 2, Vivascience). […] The cycling reaction was then allowed to proceed in the same buffer in the presence of 0.8% ethanol, 10 mM nicotinamide, 40 μg/ml BSA, 20 μg/ml diaphorase (treated with charcoal), 20 μg/ml alcohol dehydrogenase, 10 μM FMN and 20 μM resazurin. The increase in resorufin fluorescence (excitation at 544 nm and emission at 590 nm) was measured every minute for 2 h using a fluorescence plate reader (FluoStar from BMG Labtechnologies Inc).
Aliquots were removed at different time points, treated as described above and analyzed by HPLC on a C18 column.
(§1) The transglycosidation of NADP^+ was measured by incubating recombinant soluble SM38 with 1 mM NADP^+ and 20 to 40 mM nicotinic acid at 37° C. for 20 min in a 10 mM potassium phosphate buffer, pH 6.0 or 7.4 (final volume 500 μl). The reaction mixture was analyzed by HPLC on an ion-exchange column (see below). HPLC analysis of the reaction products were performed on aliquots on a C18 column (see below).
The assays were conducted at 37° C. in buffer A in the presence of soluble recombinant enzyme using eight different substrate concentrations. […] Kinetic parameters were determined from the plots of the initial rates as a function of substrate concentration, according to Michaelis-Menten kinetics, using a non-linear regression program (GraphPad, Prism).

bone marrow neutrophils [1] = test: Intracellular calcium measurements by flow cytometry (Fluo-3/Fura Red); type: cell-based, mouse
Description: Purified bone marrow neutrophils were resuspended in cell loading media (HBSS with Ca2^+ and Mg2^++1% FBS+4 mM probenecid) at 1×10^7 cells/ml. The cells were incubated at 37° C. for 30 min with the fluorescent dyes Fluo-3 AM (4 μg/ml) and Fura Red AM (10 μg/ml) (Molecular Probes, Eugene Oreg.) and then washed twice and resuspended in cell loading medium or calcium-free medium at 1×10^6 cells/ml. In some experiments, cells were permeabilized in 5 μM digitonin in calcium-free media. […] The accumulation of [Ca^2+]i in individual cells was assessed by flow cytometry measuring the fluorescence emission of Fluo-3 in the FL-1 channel and Fura-Red in the FL-3 channel. Data was analyzed using FlowJo 3.2 (Tree Star, Inc. San Carlos, Calif.). The relative [Ca2^+]i was expressed as the ratio between Fluo-3 and Fura Red mean fluorescence intensity over time.

Aplysia cyclase = Aplysia cyclase (Aplysia californica, UniProt P29241); conditions: cited from earlier work
Sequence of Aplysia cyclase (P29241 25-282): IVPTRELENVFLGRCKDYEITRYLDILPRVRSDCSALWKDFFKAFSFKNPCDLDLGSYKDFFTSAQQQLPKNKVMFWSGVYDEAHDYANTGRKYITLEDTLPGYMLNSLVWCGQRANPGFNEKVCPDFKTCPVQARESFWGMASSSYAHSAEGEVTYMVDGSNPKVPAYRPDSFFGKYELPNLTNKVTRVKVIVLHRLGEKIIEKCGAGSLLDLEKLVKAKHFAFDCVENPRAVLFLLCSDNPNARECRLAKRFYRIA

Mammalian cyclases = conditions: cited from earlier work
[2] = system: membrane-associated NAD^+ glycohydrolase/NGD^+ cyclase expressed by adult S. mansoni worms; test: NAD+ glycohydrolase / NGD+ cyclase activity of adult worm membrane microsomes
Description: The enzyme was suspended in 10 mM potassium phosphate buffer, pH 7.4 (buffer A) and incubated at 37° C. with substrate (200 μl final volume). At selected times, aliquots (50 μl) were removed and enzyme activity was stopped by adding ice-cold perchloric acid (2% final concentration). After neutralization with 3.5 M K2CO3, precipitated proteins were removed by centrifugation. Product formation was then monitored by HPLC as described below. […] Product formation was then monitored by HPLC on a C18 column as described below.
Product analysis was performed by HPLC on 300×3.9 mm μBondapack C18 column (Waters Assoc., Milford Mass.). […] The elution was performed at a flow rate of 1 ml/min with a non-linear gradient starting with 100% solvent A (water). […] Peaks were identified by comparison with authentic samples and areas obtained from UV recordings were normalized using the molar extinction coefficients of the reaction products.
To prepare membrane fractions from adult S. mansoni worms, 2 g of worms were disrupted at 4° C. with a potter in 10 mM potassium phosphate buffer (pH 7.4) containing 1 mM EDTA and 0.1 mM phenylmethylsulfonyl fluoride (PMSF) as protease inhibitors. The homogenate was centrifuged at 10,000×g for 15 min and the post-mitochondrial supernatant was centrifuged at 100,000×g for 60 min to obtain the membrane microsomal fraction. […]

bone marrow neutrophils [3] = test: In vitro transwell chemotaxis assay; type: cell-based, mouse; conditions: for ability of neutrophils to chemotax to IL-8: WT neutrophils pre-treated with agent, IL-8 in bottom chamber
Description: Bone marrow neutrophils were purified (95% purity) by positive selection using biotinylated GR-1 (PharMingen) and MACS Streptavidin Microbeads (Miltenyi Biotec, Auburn Calif.). Chemotaxis assays (Falk et al., 1980 J. Immuno. Methods 33:239-247) were performed using 24-well transwell plates with a 3 μm pore size polycarbonate filter (Costar, Cambridge, Mass.). Medium (HBSS+Ca2^++Mg2^+), fMLP (1 μM, Sigma, St. Louis, Mo.), or IL-8 (100 nM, Sigma) was placed in the lower and/or upper chamber in a checkerboard format. 1×10^5 neutrophils were loaded in the upper chamber and the plates were incubated at 37° C. for 45 min. The transmigrated cells were collected from the lower chamber, fixed and counted on the flow cytometer (FACS Calibur, Becton Dickinson, San Jose Calif.). To determine the absolute number of cells in each sample, a standard number of […] size fluorescent microspheres (Polysciences, Inc. Warrington, Pa.) was added to each tube and counted along with the cells. The total number of transmigrated cells=the number of counted neutrophils×total number of beads/beads counted. […]

[4] = Transglycosidation (pyridine base exchange) by cyclase family enzymes; type: biochemical; conditions: SM38
Description: as §1

[5] = other cyclase family members; cited from earlier work

Molecule: NC(=O)c1ccc[n+]([C@@H]2O[C@H](COP(=O)([O-])OP(=O)(O)OC[C@H]3O[C@@H](n4cnc5c(N)ncnc54)[C@H](OP(=O)(O)O)[C@@H]3O)[C@@H](O)[C@H]2O)c1 [NADP^+]
- Km (SM38): 13.7 ± 2.9 µM
- Vmax (specific activity) (SM38): 39.2 ± 1.6 µmol/min/mg
- kcat (SM38): 19.34 ± 0.79 s⁻¹
- catalytic efficiency (kcat/Km) relative to NAD+ (SM38; NADP+ versus NAD+): 8 fold

Molecule: Nc1ncnc2c1ncn2[C@@H]1O[C@H](COP(=O)(O)OP(=O)(O)OCC2OC([n+]3cccc(C(=O)[O-])c3)C(O)C2O)[C@@H](O)[C@H]1OP(=O)(O)O (stereo in doubt) [NAADP^+, nicotinic acid adenine dinucleotide phosphate]
- reduction in NAADP+ formation at pH 7.4 compared to pH 6.0 (SM38; transglycosidation of NADP+ with nicotinic acid): 3 fold

Molecule: ryanodine
- [Ca2+]i after stimulation (bone marrow neutrophils [1]; neutrophils permeabilized in calcium-free buffer): small, but reproducible, increase

Molecule: NC(=O)c1ccc[n+]([C@@H]2O[C@H](COP(=O)([O-])OP(=O)(O)OC[C@H]3O[C@@H](n4cnc5c(N)ncnc54)[C@H](O)[C@@H]3O)[C@@H](O)[C@H]2O)c1 [NAD^+]
- Hydrolysis of NAD^+ (Aplysia cyclase): very low
- Methanolysis of NAD^+ (Aplysia cyclase): very low
- Hydrolysis of NAD^+ (Mammalian cyclases): yes
- Methanolysis of NAD^+ (Mammalian cyclases): yes
- specific activity of non-treated membrane microsomes ([2]; 14C-labeled NAD+, ADPR production by HPLC): 36 nmol/min/mg protein
- Km (SM38): 38.5 ± 6.8 µM
- Vmax (specific activity) (SM38): 13.2 µmol/min/mg and 13.2 ± 2.6 µmol/min/mg
- kcat (SM38): 6.51 ± 1.28 s⁻¹
- Hydrolysis of NAD^+ (SM38; SM38): yes
- Methanolysis of NAD^+ (SM38; SM38): yes

Molecule: NC(=O)c1ccc[n+]([C@@H]2O[C@H](COP(=O)([O-])OP(=O)(O)OC[C@H]3O[C@@H](n4cnc5c(=O)[nH]c(N)nc54)[C@H](O)[C@@H]3O)[C@@H](O)[C@H]2O)c1 [NGD^+, nicotinamide guanine dinucleotide]
- cGDPR/GDPR ratio ([2]; membrane microsomes incubated with NGD+): 12
- Km (SM38): 23.4 µM
- Vmax (specific activity) (SM38): 4.8 µmol/min/mg and 4.8 ± 0.1 µmol/min/mg
- kcat (SM38): 2.37 ± 0.05 s⁻¹
- cyclization/hydrolysis ratio (SM38; NGD+ as substrate, cGDPR vs GDPR): approximately 6.0

Molecule: O=C(O)CN(CCOCCOCCN(CC(=O)O)CC(=O)O)CC(=O)O [EGTA]
- ability of neutrophils to chemotax to IL-8 (bone marrow neutrophils [3]): absolutely no effect

Molecule: NC(=O)c1ccc[n+]([C@@H]2O[C@H](COP(=O)([O-])OP(=O)(O)OC[C@H]3O[C@@H](n4cnc5c(N)ncnc54)[C@H](O)[C@@H]3O)[C@@H](O)[C@H]2F)c1 [araF-NAD^+]
- IC50 (Aplysia cyclase; read-out: Inhibition by araF-NAD^+ (IC50)): > 10 µM
- Inhibition by araF-NAD^+ (Ki) (Mammalian cyclases): Ki nM range
- IC50 (SM38; SM38, read-out: Inhibition by araF-NAD^+ (IC50)): > 10 µM

Molecule: NNC(=O)c1ccncc1 [INH, isoniazid]
- Sensivity to INH (Mammalian cyclases): yes/no
- Sensivity to INH (SM38; SM38): INH-insensitive and no

Molecule: N=c1c2nc(Br)n3c2ncn1C1OC(COP(=O)(O)OP(=O)(O)OCC2OC3C(O)C2O)C(O)C1O (stereo not drawn) [8-Br-cADPR]
- ability of neutrophils to chemotax to IL-8 (bone marrow neutrophils [3]): absolutely no effect
- release of intracellular calcium and influx of extracellular calcium (bone marrow neutrophils [1]; WT cells preincubated with increasing concentrations, stimulated with fMLP): reduced in a dose-dependent fashion
- [Ca2+]i of IL-8 stimulated neutrophils (bone marrow neutrophils [1]; WT or CD38KO neutrophils, IL-8): absolutely no effect
- cADPR-induced intracellular calcium release after pre-treatment (bone marrow neutrophils [1]; permeabilized neutrophils, calcium-free buffer, stimulated with cADPR): No calcium release
- block of accumulation of intracellular free calcium mediated by thapsigargin (bone marrow neutrophils [1]; thapsigargin-stimulated neutrophils): unable to block

Molecule: N.N.N.N.N.N.N.N.N.N.N.N.N.N.[Cl-].[Cl-].[Cl-].[Cl-].[Cl-].[Cl-].[O-2].[O-2].[Ru+3].[Ru+3].[Ru+4] [ruthenium red]
- block of ryanodine-induced increase in [Ca2+] (bone marrow neutrophils [1]; permeabilized neutrophils, calcium-free buffer): blocked

Molecule: NC(=O)c1ccc[n+]([C@@H]2O[C@H](COP(=O)([O-])OP(=O)(O)OC[C@H]3O[C@@H](n4c(Br)nc5c(N)ncnc54)[C@H](O)[C@@H]3O)[C@@H](O)[C@H]2O)c1 [N(8-Br-A)D^+, nicotinamide 8-bromoadenine dinucleotide]
- chemotaxis of CD38KO neutrophils to either fMLP or IL-8 (bone marrow neutrophils [3]; CD38KO neutrophils pre-treated): no effect
- ability of neutrophils to chemotax to IL-8 (bone marrow neutrophils [3]): no effect
- neutrophil chemotaxis to fMLP (bone marrow neutrophils [3]; WT neutrophils pre-treated, fMLP in bottom chamber): severely reduced
- entry of extracellular calcium in fMLP-treated neutrophils (bone marrow neutrophils [1]; WT neutrophils pretreated): inhibited

Molecule: cyclic GDP-ribose [cGDPR]
- Formation of cGDPR (Aplysia cyclase): yes
- Formation of cGDPR (Mammalian cyclases): yes
- Formation of cGDPR (SM38; SM38): yes

B1: SM38: CD38 homologue from the parasitic flatworm Schistosoma mansoni (protein)
chain: RHEVIFHNLLIQIMMNVILFLTLSNIFVFNSAQHQINLLSEIVQSRCTQWKVEHGATNISCSEIWNSFESILLSTHTKSACVMKSGLFDDFVYQLFELEQQQQQRHHTIQTEQYFHSQVMNIIRGMCKRLGVCRSLETTFPGYLFDELNWCNGSLTGNTKYGTVCGCDYKSNVVHAFWQSASAEYARRASGNIFVVLNGSVKAPFNENKTFGKIELPLLKHPRVQQLTVKLVHSLEDVNNRQTCESWSLQELANKLNSVHIPFRCIDDPLEFRHYQCIENPGKQLCQFSASTRSNVETLLILFPLVICLTFYTSMN
- Transglycosidation [4]: yes

B2: Aplysia cyclase: invertebrate Aplysia ADP-ribosyl cyclase enzyme (protein)
chain: MSPVAIVACVCLAVTLTRISPSEAIFPTPELQNVFLGRCKDYEITRYLTILPRVKSDCRALWTNFFKAFSFKAPCNLDLGSYKDFFQRAQQTLPKNKVMFWSGVYDEAHDFADDGRKYITLEDTLPGYMLNSLVWCGQRDKPGFNQKVCPDFKDCPVQARESFWGTASSSYAHSAEGDVTYMVDGSNPKVPAYRPDSFFGKYELPNLTNKVTKVKVIVLHQLGQKIIERCGAGSLLDLEMVVKAKKFGFDCVENPKSVLFLLCADNPNARECQLAKRYYRIA
modifications: A. californica
notes: invertebrate Aplysia ADP-ribosyl cyclase enzyme
- Transglycosidation [5]: yes
